row,SMILES,melting point [°C]
1,CC(C)(C)CCN1C(=O)C(NC(=O)Oc2ccccc2)C(=O)N(c2ccccc2F)c2ccccc21 (stereo not given),199 to 200
2,O=C(CCc1cccnc1)c1ccccc1,86 to 87
3,c1ccc(C(c2ccccc2)(c2ccns2)n2ccnc2)cc1,164 to 167
4,O=C(O)CNC(=O)C(NC(=O)c1ccccc1)SC(=O)c1ccccc1 (stereo not given),162 to 164
5,CC1N(C)C=C([N+](=O)[O-])N1CCOC(=O)Nc1cccc(C(N)=O)c1 (stereo not given),207
6,CSC[C@H]1C[C@H](C(=O)O)CS1 (relative stereo),74.8 to 76
7,CC1CC(=O)C=C2C=CC3C4CCC(=O)C4(C)CCC3C21C (stereo not given),171
8,N#CC(C(=O)C(F)(F)F)c1cccc(Cl)c1Cl (stereo not given),74 to 75
9,COc1cccc2sc(NC(=O)CO)nc12,193 to 195
10,CNc1nnc(C(C)(C)C)c(=O)n1NC,170 to 171
11,CCNc1nc2ccc(OC(F)(F)F)cc2s1,135
12,C=CC(=O)Oc1cccc(O)c1O,92 to 95
13,C=CCOc1ccc2c(C)c(C#N)c(=O)oc2c1C,172
14,O=C(O)CSC1c2cccc(O)c2C(=O)c2c(O)cccc21,151 to 152
15,CNc1cc(OC)ccc1[N+](=O)[O-],107 to 110
16,NC(=S)CCCc1ccc(Br)cc1,104 to 105
17,CCOC(=O)C1=COc2cc(C(C)(C)C)c(OC(C)=O)cc2O1,144
18,O=S(=O)(O)CCN1CCOCC1,68 to 78
19,CCCCCCOc1ccc(NC(=O)NCCC(C)(C)C)cc1,103 to 104

# The remaining lines, values ahead:
row,melting point [°C],SMILES
1,60 to 80,O=C(O)c1nn(-c2ccc(Cl)cc2Cl)c(-c2ccc(Cl)cc2)c1CF
2,45,c1ccc(OCCSCc2nnc(-c3ccc(OCCCCN4CCCC4)cc3)o2)cc1
3,77.5 to 78,CCCn1c(-c2ccc3c(c2)OCO3)nc2ccccc21
4,93 to 96,COc1cc(OC)nc(Oc2cc([N+](=O)[O-])ccc2C(=O)O)n1
5,214 to 217,COc1ccc2cc(C(C)=CC(=O)O)cc(F)c2c1
6,62 to 72,O=C(c1cc2ccnc(Cl)c2[nH]1)N1CCSCC1
7,> 300,O=c1[nH]c2sc3c(Cl)cccc3c2[nH]c1=O
8,135 to 136,CSc1nccc(Oc2ccc(NC(=O)c3cccc(OC(C)(C)C)c3)c3ccccc23)n1
9,159 to 160,CC(=O)ON(C)C(=O)CCc1cc(-c2ccc(Cl)cc2)n(-c2nc3c(Cl)cccc3s2)n1
10,325 to 332,Nc1ncc2cc(-c3c(Cl)cccc3Cl)c(N)nc2n1
11,196 to 198,CCc1oc2ccc(C(C)C(=O)O)cc2c(=O)c1C (stereo not given)
12,105 to 106,CC(C)c1ccc(Oc2ccc(CCNc3ncnc4nccnc34)cc2)cc1
13,222 to 225,CCc1nc2c(N)nc3ccccc3c2n1CCS(C)(=O)=O
14,178 to 179,COC1OCC[C@@H]1NC(=O)[C@H](CC(C)C)NC(=O)[C@H](CC(C)C)NC(=O)c1ccc2c(c1)Nc1ccccc1O2 (stereo not given in full)
15,134 to 135,O=c1oc(-c2ccc(F)cc2)cc2ccccc12
16,173 to 175,CCCN(CCC)S(=O)(=O)c1cc(-c2csc(=Nc3cc(Cl)c(OC)cc3OC)n2C)ccc1Cl
17,> 250,CS(=O)(=O)c1ccc(N2CCc3[nH]c4c(cnc5cc(Cl)ccc54)c3C2)cc1
18,78.4 to 80.5,Cc1cc(-c2cc(COS(C)(=O)=O)c(=O)n(CC=Cc3ccccc3)n2)ccc1F
19,120 to 122,O=[N+]([O-])c1cc(CSC2OC(CO)C(OC3OC4COC(c5ccccc5)OC4C(O)C3O)C(O)C2O)ccc1Cl (stereo not given)
20,168 to 169,COC(=O)c1ccccc1NC(=O)CN1CCN(C(=O)c2ccc(OC)c(OC)c2)CC1
21,247 to 248,Cc1cc(=O)n(-c2cc(C(=O)O)c(Cl)cc2F)c(=O)n1C(F)F

# — a melting point compilation (Tetko et al.; mined from patent text by program, amines drawn as free bases though some values may be those of a salt)
